Data set [1] in a line: Solubility of the isolated salt in water (remark in the preparation examples). It is filed as physicochemical. The conditions noted are these: hydrochloride / dihydrochloride salt.
The target of a further data set is T1, 5-HT-1A receptors (Rattus norvegicus, UniProt P19327).
T1 construct: 5-HT-1A receptors in rat brain membranes; from tissue; host or cells: rat brain membranes
T1 sequence (P19327 1-422): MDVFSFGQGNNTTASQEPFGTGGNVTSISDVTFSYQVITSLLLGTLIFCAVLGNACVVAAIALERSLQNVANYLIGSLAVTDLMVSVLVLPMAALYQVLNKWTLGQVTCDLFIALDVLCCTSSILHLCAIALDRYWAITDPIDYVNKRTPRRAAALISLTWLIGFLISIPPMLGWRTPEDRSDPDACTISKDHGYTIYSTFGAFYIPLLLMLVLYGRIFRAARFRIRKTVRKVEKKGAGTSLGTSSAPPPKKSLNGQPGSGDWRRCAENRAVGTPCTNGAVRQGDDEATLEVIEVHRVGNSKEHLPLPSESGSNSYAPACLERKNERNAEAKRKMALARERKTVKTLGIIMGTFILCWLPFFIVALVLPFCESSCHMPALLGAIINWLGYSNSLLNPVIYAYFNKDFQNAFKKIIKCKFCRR
The data set is described as follows: Affinity for 5-HT-1A receptors: displacement of tritiated 8-OH-DPAT on rat brain membranes. The settings on record: Ki from IC50 by Cheng and Prusoff, read-out: Inhibition constants at 5-HT1A-receptor (Ki). It is filed as binding. Here is the method:
The affinity of compounds of the general formula I for 5-HT-1A receptors was determined by the method described by H. Gozlan, S. Elmestikawy, L. Pichat, J. Glowinski and M. Hamon in Nature 305, 140-142 (1983). In this method the competitive displacement of tritiated 8-OH-DPAT (8-hydroxy-(di-n-propylamino)tetralin) on rat brain membranes by the test substances is measured, and the IC50 (50% inhibition concentration) is determined as that concentration which brings about a 50% inhibition of the specific binding of tritiated 8-OH-DPAT to 5-HT-1A receptors in rat brain membranes.
The concentration-independent inhibitor constants K1 -alpha1 and K1 -5HT-1A were determined from the IC50 values as stated by Y. Cheng and H. W. Prusoff in Biochem. Pharmacol. 22, 3099-3108 (1973).

The next data set has as its target T2, alpha1 adrenoceptors (Rattus norvegicus, UniProt P15823).
T2 construct: from tissue; host or cells: rat cardiac membranes
T2 sequence (P15823 1-515): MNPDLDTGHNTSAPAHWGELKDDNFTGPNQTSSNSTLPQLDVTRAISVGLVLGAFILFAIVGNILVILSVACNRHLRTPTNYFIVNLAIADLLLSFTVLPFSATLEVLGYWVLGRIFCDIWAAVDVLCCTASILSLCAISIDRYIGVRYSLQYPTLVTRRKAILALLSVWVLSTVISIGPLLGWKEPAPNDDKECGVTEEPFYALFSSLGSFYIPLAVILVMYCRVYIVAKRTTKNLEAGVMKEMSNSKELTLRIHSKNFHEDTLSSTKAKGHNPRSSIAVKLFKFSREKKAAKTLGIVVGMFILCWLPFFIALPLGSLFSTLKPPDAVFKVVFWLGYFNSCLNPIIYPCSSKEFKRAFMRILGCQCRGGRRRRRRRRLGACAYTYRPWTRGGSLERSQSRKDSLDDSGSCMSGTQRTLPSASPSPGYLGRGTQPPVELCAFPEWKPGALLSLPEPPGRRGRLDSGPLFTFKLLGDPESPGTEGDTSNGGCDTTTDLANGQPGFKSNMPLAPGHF
The data set is described as follows: Affinity for alpha1 adrenoceptors: displacement of tritiated prazosin on rat cardiac membranes. It is filed as binding. The conditions noted are these: Ki from IC50 by Cheng and Prusoff, read-out: Inhibition constants at alpha-1-adrenoceptor (Ki). Summed up:
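Competitive displacement of tritiated prazosin from rat cardiac membranes; IC50 taken as the concentration giving 50% inhibition of specific binding. Ki values converted from IC50 by the Cheng-Prusoff relation.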

The term Ki denotes a measure of affinity in units of concentration, obtained from inhibition or displacement.

In the case of `CC(C)(C)n1ncc(Cl)c(NCCN2CCN(c3cccc(C(F)(F)F)c3)CC2)c1=O`, in data set [1], the solubility in water entry was “readily soluble in water”.

On to `CC(C)(C)n1ncc(NCCN2CCN(c3cccc(C(F)(F)F)c3)CC2)c(Cl)c1=O`, for which the solubility in water entry in data set [1] is “readily soluble in water”.

Consider `Cc1cccc(C)c1N1CCN(CCNc2c(Cl)cnn(C)c2=O)CC1` [2-methyl-5-chloro-4-((2-(4-(2,6-dimethylphenyl)-1-piperazinyl)ethyl)amino)-3(2H)-pyridazinone], for which the solubility in water entry in data set [1] is “readily soluble in water”.

`COc1ccccc1N1CCN(CCCCCCNc2cnn(C)c(=O)c2Cl)CC1` [2-Methyl-4-chloro-5-((6-(4-(2-methoxyphenyl)-1-piperazinyl)hexyl)amino)-3(2H)-pyridazinone]: the solubility in water result in data set [1] is “soluble in water”.

For `COc1ccccc1N1CCN(CCNc2cnn(CCO)c(=O)c2Cl)CC1` [2-Hydroxyethl-4-chloro-5-((2-(4-(2-methoxyphenyl)piperazinyl-1-)ethyl)amino-3(2H)-pyridazinone], the inhibition constant Ki at 5-HT-1A receptors came to 86.3 nM; on alpha1 adrenoceptors it was 10.8 nM.

Turning to `COc1ccccc1N1CCN(CCNc2c(Cl)cnn(C)c2=O)CC1` [2-Methyl-5-chloro-4-((2-(4-(2-methoxyphenyl)-1-piperazinyl)ethyl)amino)-3(2H)-pyridazinone], the Ki on 5-HT-1A receptors is 16.6 nM; at alpha1 adrenoceptors, 1.5 nM.

Consider `COc1ccccc1N1CCN(CCNc2c(OC)cnn(C)c2=O)CC1` [5-Methoxy-2-methyl-4-((2-(4-(2-methoxyphenyl)-1-piperazinyl)ethyl)amino)-3(2H)-pyridazinone], for which the values for the Ki on 5-HT-1A receptors and at alpha1 adrenoceptors were 90.8 nM and 7.83 nM, respectively.

As to `COc1ccccc1N1CCN(CCCCCCNc2c(Cl)cnn(C)c2=O)CC1` [2-methyl-5-chloro-4-((6-(4-(2-methoxyphenyl)-1-piperazinyl)hexyl)amino)-3(2H)-pyridazinone], the solubility in water entry in data set [1] is given as “soluble in water”.

For `Cc1cccc(C)c1N1CCN(CCNc2cnn(C)c(=O)c2Cl)CC1` [2-methyl-4-chloro-5-((2-(4-(2,6-dimethylphenyl)-1-piperazinyl)ethyl)amino)-3(2H)-pyridazinone], the solubility in water result in data set [1] is listed as “readily soluble in water”.

For the compound `COc1ccccc1N1CCN(CCNc2c(Cl)cnn(CCO)c2=O)CC1` [2-Hydroxyethyl-5-chloro-4-((2-(4-(2-methoxyphenyl)piperazinyl-1)ethyl)amino)-3(2H)-pyridazinone], the figures for the Ki on 5-HT-1A receptors and at alpha1 adrenoceptors were 25.6 nM and 2.42 nM, respectively.

For `COc1ccccc1N1CCN(CCCNc2cc(Cl)nn(C)c2=O)CC1` [2-Methyl-6-chloro-4-((3-(4-(2-methoxyphenyl)-1-piperazinyl)propyl)amino)-3(2H)-pyridazinone], the Ki at 5-HT-1A receptors was 46.6 nM; at alpha1 adrenoceptors it was 11 nM.

Source of the values: patent publication US5034391A, “Piperazinylalkyl-3(2H)-pyridazinones and the use thereof as agents lowering blood pressure” (CL Pharma Aktiengesellschaft, priority 1988, dated 1991).
